± gives the expanded uncertainty stated by the source.
Assays:
[1] = Crystal; DTA
[2] = Molar enthalpy of transition or fusion; conditions: Crystal; DSC

Row | Normal melting temperature [1] | Molar enthalpy of transition or fusion [2] | Structure (SMILES)
1 | 204.00 ± 1.5 °C | 35 ± 0.76 kJ/mol | O=C(O)c1cccnc1Nc1cccc(C(F)(F)F)c1
2 | 214.00 ± 1.1 °C | 31.5 ± 0.69 kJ/mol | Cc1c(Cl)cccc1Nc1ccccc1C(=O)O [2-[(3-chloro-2-methylphenyl)amino]benzoic acid]
3 | 171.00 ± 0.88 °C | 30.4 ± 0.67 kJ/mol | O=C(O)c1ccccc1Nc1cccc(Cl)c1Cl [clofenamic acid]

Source: the NIST ThermoML archive (doi:10.1016/j.fluid.2015.02.007)
